A short description of this series: Plasma pharmacokinetics. To be noted: during 5 days of dosing.

On to `N#C[C@@H]1C[C@@H]2C[C@@H]2N1C(=O)[C@@H](N)C12CC3CC(O)(CC(O)(C3)C1)C2` [5-OH-Saxagliptin, 5-hydroxy-saxagliptin], for which the “Plasma concentrations appeared to reach steady state by” value is given as “Day 5”.
